Data on eight compounds can be found in PubChem BioAssay (NCI).

Test systems include SNB-19 CNS; A498 renal; COLO 205 colon; SN12C renal; UACC-257 melanoma; MALME-3M melanoma; SK-OV-3 ovarian; CAKI-1 renal; A549 NSCLC; U251 CNS.
What all share (assay): NCI tumour cell line growth inhibition, 48 h

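Growth conditions: 96-well plates. Treatment: test compound, 48 hours, 5 concentrations. Analysis: linear interpolation between bracketing concentrations; unreached endpoints set to highest concentration. At the TGI there is no net growth.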 A value given as a limit tells only on which side of the number the result lay.

On to `c1c2c(cc3c1OCO3)-c1cc3ccc4c(c3c[n+]1CC2)OCO4`, for which the TGI with SNB-19 CNS was above 8.78 µM; in the test with A498 renal, above 12.5 µM; in the test on COLO 205 colon, above 10.8 µM; in the test with SN12C renal it was above 12.5 µM; in the test with UACC-257 melanoma, above 12.5 µM; with MALME-3M melanoma, 3.04 µM. Besides, the TGI is above 12.5 µM with SK-OV-3 ovarian, above 12.5 µM in the test on CAKI-1 renal, above 12.5 µM in the test on A549 NSCLC and above 11.4 µM with U251 CNS.

Regarding `Cc1c2cc[n+](C)cc2c(C)c2c1oc1ccccc12`, the TGI with SNB-19 CNS was 4.27 µM; in the test with A498 renal, above 69 µM; in the test with COLO 205 colon it was 14.8 µM; in the test with SN12C renal, 4.57 µM; in the test on UACC-257 melanoma it was 17.9 µM; in the test on MALME-3M melanoma, 3.99 µM. Moreover, the TGI was 57.8 µM with SK-OV-3 ovarian, 98.3 µM in the test with CAKI-1 renal, 36.5 µM in the test with A549 NSCLC and 3.37 µM with U251 CNS.

For the compound `c1ccc([P+](c2ccccc2)(c2ccccc2)c2ccc(-c3ccc([P+](c4ccccc4)(c4ccccc4)c4ccccc4)cc3)cc2)cc1`, the TGI with SNB-19 CNS was above 100 µM; with A498 renal it was 10.3 µM; in the test on COLO 205 colon it was 31.5 µM; with SN12C renal, 97.1 µM; in the test with UACC-257 melanoma it was 63 µM; with MALME-3M melanoma, 89.9 µM. The TGI in the test with SK-OV-3 ovarian was above 100 µM; in the test with CAKI-1 renal, above 100 µM; in the test on A549 NSCLC, 87.9 µM; in the test on U251 CNS it was above 100 µM.

For `O=C(NC(Cc1ccc(I)cc1)C(=O)O)c1ccc(Cl)cc1` (stereo not given), the TGI in the test with SNB-19 CNS, in the test with A498 renal, in the test with COLO 205 colon, in the test with SN12C renal, with UACC-257 melanoma and in the test on MALME-3M melanoma was above 100 µM throughout. For the same compound, the TGI with SK-OV-3 ovarian, in the test with CAKI-1 renal, with A549 NSCLC and in the test on U251 CNS was above 100 µM in each case.

As for `NCCNCCNc1ccc(NCCNCCN)c2c1C(=O)c1c(O)ccc(O)c1C2=O`, the TGI in the test with SNB-19 CNS, in the test with A498 renal, with COLO 205 colon, with SN12C renal, with UACC-257 melanoma and in the test with MALME-3M melanoma was above 100 µM each time. Besides, the TGI with SK-OV-3 ovarian, in the test with CAKI-1 renal, in the test with A549 NSCLC and with U251 CNS was above 100 µM in each case.

For the compound `COc1cc([N+](=O)[O-])ccc1NC(=O)c1cccc([N+](=O)[O-])c1O`, the TGI is above 100 µM in the test on SNB-19 CNS; 51.7 µM in the test on A498 renal; 40.3 µM in the test on COLO 205 colon; 71.8 µM in the test on SN12C renal; 63.7 µM in the test on UACC-257 melanoma; 63.5 µM with MALME-3M melanoma. Also, the TGI in the test on SK-OV-3 ovarian is 77.9 µM; in the test with CAKI-1 renal it was 48.8 µM; with A549 NSCLC, 66.6 µM; in the test with U251 CNS, above 100 µM.

For `Nc1nc(OCC2CCCCC2)c2[nH]cnc2n1`, the TGI in the test on SNB-19 CNS was above 100 µM; with A498 renal it was 54.4 µM; with COLO 205 colon, above 56.9 µM; in the test on SN12C renal it was 56.3 µM; in the test with UACC-257 melanoma, 61.8 µM; with MALME-3M melanoma, above 50.4 µM. Moreover, the TGI in the test with SK-OV-3 ovarian is 68.5 µM; with CAKI-1 renal, 58 µM; in the test with A549 NSCLC, 81.5 µM; in the test on U251 CNS, above 73.7 µM.

`CNC(C)Cc1ccccc1OC` (stereo not given): the TGI in the test with SNB-19 CNS, in the test on A498 renal, in the test on COLO 205 colon, with SN12C renal, in the test on UACC-257 melanoma and in the test on MALME-3M melanoma was above 100 µM each time. The TGI in the test on SK-OV-3 ovarian, with CAKI-1 renal, in the test with A549 NSCLC and in the test on U251 CNS was above 100 µM throughout.
